In ChEMBL document CHEMBL1201862, “PubChem BioAssay data set” (2004):
Calls of active or inactive are those of the source.

Experiments:
[1] = molecular target: T1, DNA repair and recombination protein RAD54-like (Homo sapiens, UniProt Q92698); assay: RAD54 Holliday junction migration blockers – biochemical, fluorescence, cherry-picked samples, dose series, confirmation (AID 651657); type: functional
T1 sequence (Q92698 whole entry): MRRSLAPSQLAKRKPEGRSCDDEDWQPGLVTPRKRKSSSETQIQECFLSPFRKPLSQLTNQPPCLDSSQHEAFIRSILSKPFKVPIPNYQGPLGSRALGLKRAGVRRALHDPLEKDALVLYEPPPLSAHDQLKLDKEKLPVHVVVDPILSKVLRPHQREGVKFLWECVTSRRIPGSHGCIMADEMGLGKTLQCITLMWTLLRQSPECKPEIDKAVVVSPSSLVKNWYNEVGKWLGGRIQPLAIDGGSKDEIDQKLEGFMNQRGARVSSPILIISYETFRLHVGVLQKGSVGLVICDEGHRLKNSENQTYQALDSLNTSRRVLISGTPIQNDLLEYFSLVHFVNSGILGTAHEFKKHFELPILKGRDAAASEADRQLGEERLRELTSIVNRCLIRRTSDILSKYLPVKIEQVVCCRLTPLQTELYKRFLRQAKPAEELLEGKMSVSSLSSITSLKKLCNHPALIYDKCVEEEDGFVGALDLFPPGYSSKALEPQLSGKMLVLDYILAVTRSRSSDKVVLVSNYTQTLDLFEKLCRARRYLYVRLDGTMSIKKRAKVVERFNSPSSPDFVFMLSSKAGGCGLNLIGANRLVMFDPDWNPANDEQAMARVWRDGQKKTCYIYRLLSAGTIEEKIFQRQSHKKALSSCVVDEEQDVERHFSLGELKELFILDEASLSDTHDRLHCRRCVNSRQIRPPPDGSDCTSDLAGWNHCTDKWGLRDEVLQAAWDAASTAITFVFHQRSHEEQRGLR

[2] = Trypanosoma cruzi growth suppression in host cells – NIH3T3 host cells, beta-gal luminescence, confirmation (AID 2044); type: functional, cell-based;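 further: intracellular parasites grown in NIH/3T3 mouse fibroblasts as host cells; luminescent beta-galactosidase reporter signal from transgenic T. cruzi replicating inside host cells; inhibitors lower the luminescence signal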
[3] = NIH3T3 cell viability loss – ATP luminescence, mouse fibroblasts, counter-screen, dose response (AID 2010); type: functional, cell-based;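 further: cells exposed to compound for about 90 hours before reading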
[4] = molecular target: T2, Apoptotic protease-activating factor 1 (Homo sapiens, UniProt O14727); assay: SAR analysis of small molecule Activators of Apaf-1 in a Fluorescent assay.; type: functional; details: read-out: EC50_Mean;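 further: caspase-3 cleavage of fluorogenic Rh110 DEVD substrate downstream of apoptosome activation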
T2 sequence (O14727 whole entry): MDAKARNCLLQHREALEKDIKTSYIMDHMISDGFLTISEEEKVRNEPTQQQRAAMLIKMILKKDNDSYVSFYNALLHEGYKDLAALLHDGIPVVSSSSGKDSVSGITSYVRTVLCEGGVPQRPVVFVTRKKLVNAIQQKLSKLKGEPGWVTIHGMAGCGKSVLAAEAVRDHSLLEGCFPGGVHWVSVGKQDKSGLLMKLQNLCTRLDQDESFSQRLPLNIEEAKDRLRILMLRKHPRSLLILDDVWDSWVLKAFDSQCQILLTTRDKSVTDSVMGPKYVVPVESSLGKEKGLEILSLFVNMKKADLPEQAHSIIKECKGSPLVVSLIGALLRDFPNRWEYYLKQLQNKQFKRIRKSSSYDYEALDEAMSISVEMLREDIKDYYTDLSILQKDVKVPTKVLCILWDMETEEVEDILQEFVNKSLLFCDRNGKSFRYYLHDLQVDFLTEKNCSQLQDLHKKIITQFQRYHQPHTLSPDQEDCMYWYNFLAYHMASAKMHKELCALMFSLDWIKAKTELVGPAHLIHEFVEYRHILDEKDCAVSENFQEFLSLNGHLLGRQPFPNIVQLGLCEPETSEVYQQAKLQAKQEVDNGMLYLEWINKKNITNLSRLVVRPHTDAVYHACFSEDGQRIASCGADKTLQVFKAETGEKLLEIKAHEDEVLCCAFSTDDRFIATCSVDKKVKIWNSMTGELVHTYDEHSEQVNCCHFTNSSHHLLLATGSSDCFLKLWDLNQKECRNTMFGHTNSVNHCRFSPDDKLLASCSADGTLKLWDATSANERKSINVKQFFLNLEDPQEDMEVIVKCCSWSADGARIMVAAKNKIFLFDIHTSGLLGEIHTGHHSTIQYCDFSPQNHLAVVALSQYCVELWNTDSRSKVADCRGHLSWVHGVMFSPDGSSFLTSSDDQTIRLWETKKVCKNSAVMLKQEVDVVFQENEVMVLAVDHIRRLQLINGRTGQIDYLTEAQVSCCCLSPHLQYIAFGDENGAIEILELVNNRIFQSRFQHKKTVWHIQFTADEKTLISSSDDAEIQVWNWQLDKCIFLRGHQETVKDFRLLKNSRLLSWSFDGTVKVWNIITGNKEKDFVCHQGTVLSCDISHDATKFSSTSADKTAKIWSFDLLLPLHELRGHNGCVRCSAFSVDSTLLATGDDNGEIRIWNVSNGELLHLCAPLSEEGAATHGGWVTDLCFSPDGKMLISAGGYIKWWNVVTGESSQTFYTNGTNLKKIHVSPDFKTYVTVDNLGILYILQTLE

HEK293 = assay: EBV LMP1 TES2 canonical NF-kB signalling blockers – cell-based, HEK293, luciferase, cherry-pick, dose response (AID 588343); type: functional; details: Homo sapiens
[5] = blockers of CRF-binding protein–CRF-R2 complex – cell-based, uHTS hits, 384-well, dose response (AID 651639); type: functional, Homo sapiens; details: read-out: IC50_Mean
Melanocortin receptor 4 = Melanocortin receptor 4 (Homo sapiens, UniProt P32245); type: functional, cell-based;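 further: Cell-based assay with luminescence read-out, confirmatory dose-response testing for agonist activity of biased ligands at MC4R; human U2OS cells with tagged receptor and beta-arrestin; potency of agonists that increase receptor coupling to beta-arrestin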
Chain of Melanocortin receptor 4 (P32245 whole entry): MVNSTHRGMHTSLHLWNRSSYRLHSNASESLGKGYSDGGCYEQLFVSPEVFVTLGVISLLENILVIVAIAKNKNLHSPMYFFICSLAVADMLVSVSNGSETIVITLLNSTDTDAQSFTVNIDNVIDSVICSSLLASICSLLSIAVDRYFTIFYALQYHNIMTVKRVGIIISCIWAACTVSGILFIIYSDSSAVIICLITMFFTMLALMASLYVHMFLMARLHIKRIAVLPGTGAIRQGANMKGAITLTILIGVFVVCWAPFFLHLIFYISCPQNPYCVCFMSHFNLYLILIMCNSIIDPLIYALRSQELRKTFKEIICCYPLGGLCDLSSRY

[6] = molecular target: Heat shock protein HSP 90-alpha (Homo sapiens, UniProt P07900); type: functional, organism-based
[7] = molecular target: T3, Ubiquitin-conjugating enzyme E2 N (Homo sapiens, UniProt P61088); type: functional;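 further: Dose-response confirmation in a TR-FRET assay detecting UBC13-driven polyubiquitin chain formation, inhibition measured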
T3 sequence (P61088 whole entry): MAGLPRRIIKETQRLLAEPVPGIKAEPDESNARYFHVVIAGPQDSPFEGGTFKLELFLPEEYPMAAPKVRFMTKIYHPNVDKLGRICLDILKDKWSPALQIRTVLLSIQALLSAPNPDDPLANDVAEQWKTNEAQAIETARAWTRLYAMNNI

[8] = viability of PTEN-deleted HCT116 cells – cell-based, HCT116 PTEN knockout, dose response (AID 1047); type: functional;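 further: HCT116 colon tumor cells with PTEN knocked out; cells exposed to compound for 60 hours before readout; potency for loss of cell viability measured by luminescence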
[9] = molecular target: Eukaryotic translation initiation factor 4E (Mus musculus, UniProt P63073); assay: blockers of eIF4G binding by eIF4E – biochemical, TR-FRET, dose response (AID 855); type: functional;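 further: potency for disrupting eIF4E binding to eIF4GI seen as loss of FRET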
Chain of Eukaryotic translation initiation factor 4E (P63073 whole entry): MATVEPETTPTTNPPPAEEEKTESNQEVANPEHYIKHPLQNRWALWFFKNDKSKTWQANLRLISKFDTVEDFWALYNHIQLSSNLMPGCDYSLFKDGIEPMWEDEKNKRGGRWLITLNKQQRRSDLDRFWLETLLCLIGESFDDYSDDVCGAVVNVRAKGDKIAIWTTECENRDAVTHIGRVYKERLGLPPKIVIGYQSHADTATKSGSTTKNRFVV

[10] = HEK-293T viability loss after treatment – luminescence, T-cell screen hits, cytotoxicity control for TCR NF-kB inhibitor project, dose response (AID 489026); type: functional, cell-based;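 further: cells exposed to compound about 14 hours before the viability readout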
[11] = viability of HCT116 lacking mutant beta-catenin – cell-based, human colon tumor, dose response (AID 1045); type: functional;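 further: HCT116 colon tumor cells with beta catenin knocked out; cells exposed to compound for 60 hours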
[12] = molecular target: DNA dC->dU-editing enzyme APOBEC-3G (Homo sapiens, UniProt Q9HC16); type: functional;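 further: Dose-response counterscreen measuring inhibition of APOBEC3G DNA deaminase activity, run while confirming APOBEC3A inhibitors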
Chain of DNA dC->dU-editing enzyme APOBEC-3G (Q9HC16 whole entry, the tested form may be a part): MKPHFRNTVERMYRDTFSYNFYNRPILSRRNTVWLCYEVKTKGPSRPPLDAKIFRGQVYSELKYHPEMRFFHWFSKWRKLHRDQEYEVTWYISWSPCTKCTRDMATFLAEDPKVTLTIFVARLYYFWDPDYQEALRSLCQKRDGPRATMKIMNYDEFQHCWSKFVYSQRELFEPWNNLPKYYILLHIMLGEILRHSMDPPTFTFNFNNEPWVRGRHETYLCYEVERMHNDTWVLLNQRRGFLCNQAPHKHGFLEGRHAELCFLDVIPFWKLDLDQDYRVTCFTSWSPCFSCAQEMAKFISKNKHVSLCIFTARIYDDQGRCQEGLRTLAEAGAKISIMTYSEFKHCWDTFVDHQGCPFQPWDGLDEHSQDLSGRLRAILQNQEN

[13] = molecular target: T4, Carboxy-terminal domain RNA polymerase II polypeptide A small phosphatase 1 (Homo sapiens, UniProt Q9GZU7); assay: CTDSP1 inhibitors, concentration-response, biochemical, absorbance readout, ultra-high-throughput screen actives (AID 540297); type: functional
T4 sequence (Q9GZU7 whole entry): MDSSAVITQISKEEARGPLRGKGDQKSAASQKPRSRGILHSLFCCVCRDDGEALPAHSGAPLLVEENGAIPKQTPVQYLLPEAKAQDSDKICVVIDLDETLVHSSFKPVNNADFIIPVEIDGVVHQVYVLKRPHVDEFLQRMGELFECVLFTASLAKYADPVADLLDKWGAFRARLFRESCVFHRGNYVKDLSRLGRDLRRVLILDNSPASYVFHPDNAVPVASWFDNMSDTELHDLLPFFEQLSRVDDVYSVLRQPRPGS

[14] = molecular target: DNA dC->dU-editing enzyme APOBEC-3A (Homo sapiens, UniProt P31941); assay: Dose Response confirmation of small molecule APOBEC3A DNA Deaminase Inhibitors via a fluorescence-based single-stranded DNA deaminase assay. [Related pubchem assays (depositor defined):AID493011, AID493024]; type: functional
Chain of DNA dC->dU-editing enzyme APOBEC-3A (P31941 whole entry): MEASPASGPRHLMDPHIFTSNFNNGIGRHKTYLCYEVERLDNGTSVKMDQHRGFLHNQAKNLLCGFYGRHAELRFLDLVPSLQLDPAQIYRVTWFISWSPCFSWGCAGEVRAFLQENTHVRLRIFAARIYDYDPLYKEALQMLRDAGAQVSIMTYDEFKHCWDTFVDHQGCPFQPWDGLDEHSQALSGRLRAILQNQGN

[15] = molecular target: T5, Rac GTPase-activating protein 1 (Homo sapiens, UniProt Q9H0H5); assay: blockers of MgcRacGAP-driven Rac1 GTP hydrolysis – biochemical, ADP Hunter fluorescence, primary and confirmatory, confirmation (AID 624330); type: functional
T5 sequence (Q9H0H5 whole entry): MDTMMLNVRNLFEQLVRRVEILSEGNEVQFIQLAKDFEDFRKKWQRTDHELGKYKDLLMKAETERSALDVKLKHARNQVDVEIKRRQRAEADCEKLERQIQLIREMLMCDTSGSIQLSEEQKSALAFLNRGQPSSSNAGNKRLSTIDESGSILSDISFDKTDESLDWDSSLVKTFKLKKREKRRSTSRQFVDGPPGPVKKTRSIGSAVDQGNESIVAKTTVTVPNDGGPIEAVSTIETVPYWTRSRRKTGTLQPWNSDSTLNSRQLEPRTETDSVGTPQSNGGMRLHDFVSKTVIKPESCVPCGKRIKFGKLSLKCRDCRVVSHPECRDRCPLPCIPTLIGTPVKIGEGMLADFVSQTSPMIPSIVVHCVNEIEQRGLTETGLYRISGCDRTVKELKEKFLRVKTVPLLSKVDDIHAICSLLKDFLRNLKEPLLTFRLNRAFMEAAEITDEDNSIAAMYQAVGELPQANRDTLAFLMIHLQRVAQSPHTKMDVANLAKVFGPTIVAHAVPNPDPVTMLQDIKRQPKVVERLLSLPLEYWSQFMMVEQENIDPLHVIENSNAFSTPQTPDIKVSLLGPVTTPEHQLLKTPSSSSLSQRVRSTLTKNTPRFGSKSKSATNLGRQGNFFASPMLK

[16] = molecular target: Glucose-6-phosphate 1-dehydrogenase (Homo sapiens, UniProt P11413); assay: inhibition of Homo sapiens G6PD, dose series – biochemical, fluorescence, selectivity assay for P. falciparum G6PD inhibitor project, dose response (AID 504792); type: functional
Chain of Glucose-6-phosphate 1-dehydrogenase (P11413 whole entry): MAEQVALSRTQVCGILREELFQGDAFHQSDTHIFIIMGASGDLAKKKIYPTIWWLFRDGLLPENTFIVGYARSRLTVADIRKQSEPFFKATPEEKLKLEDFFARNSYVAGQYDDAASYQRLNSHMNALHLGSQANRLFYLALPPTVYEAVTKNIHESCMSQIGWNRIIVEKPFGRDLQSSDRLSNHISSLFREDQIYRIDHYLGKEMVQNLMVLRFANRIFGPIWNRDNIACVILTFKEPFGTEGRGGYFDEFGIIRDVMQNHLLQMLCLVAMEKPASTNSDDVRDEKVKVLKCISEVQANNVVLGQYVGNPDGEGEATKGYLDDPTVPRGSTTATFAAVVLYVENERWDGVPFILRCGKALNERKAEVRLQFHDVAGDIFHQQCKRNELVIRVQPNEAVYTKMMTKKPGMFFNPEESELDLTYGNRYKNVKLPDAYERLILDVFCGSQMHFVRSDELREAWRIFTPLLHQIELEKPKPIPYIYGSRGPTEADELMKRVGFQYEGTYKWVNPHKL

H9c2 = assay: cells; type: functional, cell-based; details: Rattus norvegicus, H9c2, Myocardium
H4 = assay: Luminescence Cell-Based Dose Response HTS to Identify Activators of 5'UTR Stem-Loop Driven Prion Protein mRNA Translation in H4 Neuroglioblastoma Cells. [Related pubchem assays: 1829 (Project Summary), 1814 (Primary HTS)]; type: functional; details: Homo sapiens
[17] = Luminescence Cell-Based Dose Confirmation HTS to Identify Activators of 5'UTR Stem-Loop Driven Alpha-Synuclein mRNA Translation in H4 Neuroglioblastoma Cells. [Related pubchem assays: 1829 (Project Summary), 1814 (Primary HTS)]; type: functional
[18] = molecular target: T6, Low molecular weight phosphotyrosine protein phosphatase (Homo sapiens, UniProt P24666); type: functional; details: read-out: IC50_Mean;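 further: Dose-response confirmation assay measuring inhibition of LMPTP enzyme activity by fluorescence intensity read-out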
T6 sequence (P24666 whole entry): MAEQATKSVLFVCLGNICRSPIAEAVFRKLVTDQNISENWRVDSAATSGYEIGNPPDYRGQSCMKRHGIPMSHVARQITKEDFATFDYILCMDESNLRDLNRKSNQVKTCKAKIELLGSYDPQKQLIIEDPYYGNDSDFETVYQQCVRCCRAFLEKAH

[19] = Luminescence Cell-Based Dose Response HTS to Identify Activators of Luciferase Translation or Activity in H4 […] Cells. [Related pubchem assays: 1829 (Project Summary), 1814 (Primary HTS)]; type: functional
[20] = microbe, parasite or virus in culture; type: functional; details: Mycobacterium tuberculosis

## CN(C)CCN(C(=O)c1ccco1)c1nc2cc3c(cc2s1)OCCO3
[1]
  AC50: 30.6 µM (active)

## CN(C)CCN(C(=O)CN1C(=O)c2ccccc2C1=O)c1nc2cc3c(cc2s1)OCCO3
cells
  EC50: 0.163 µM (active)
[2]
  EC50: < 0.1 µM (active)
[1]
  AC50: 57.6 µM (active)
[3]
  EC50: > 60 µM (not active)

## O=C1CC2(CC(c3c(F)cccc3Cl)=NO2)C(=O)N1c1ccccc1 (stereo not given)
[4]
  EC50: > 100 µM (inactive)

## Cc1ccc(C)c(Cn2c(O)c(N=NC(S)=Nc3ccccc3F)c3ccccc32)c1
[2]
  EC50: 1.17 µM (active)
[3]
  EC50: > 60 µM (not active)
HEK293
  AC50: 2.44 µM (active)

## COc1ccc(C(=O)O/N=C(\N)Cc2ccc(Cl)c(Cl)c2)cc1OC
[5]
  IC50: 5.1 µM (active)

## CCCCCCCCCCCCCCCC[n+]1ccc(C=NO)cc1
Melanocortin receptor 4
  EC50: > 3.3 µM (active)
[6]
  AC50: 3.1 µM (active)
[7]
  IC50: > 20 µM (inactive)
[8]
  EC50: 1.26 µM (active)
[9]
  IC50: 12.7 µM (active)
[10]
  IC50: 67.7 µM (inactive)
[11]
  EC50: 0.884 µM (active)

## CCn1c2c(c(C)[n+]1CC)C(=O)CC(C)(C)C2
[12]
  IC50: 3.74 µM (active)
[13]
  IC50: 18.9 µM (active)
[14]
  IC50: 1.89 µM (active)

## COc1cc(Sc2ccc(C)cc2)c(OC)cc1N
[15]
  IC50: 24.8 µM (active)
[16]
  IC50: > 80 µM (inactive)

## CC1CCCC(C)N1C(=O)C1CC(c2ccc(F)cc2)=NO1 (stereo not given)
[4]
  EC50: > 100 µM (inactive)

## COc1cc(-c2cc(NC=O)c3ncc(-c4ccccc4)n3c2)cc(OC)c1OC
Melanocortin receptor 4
  EC50: > 89.2 µM (inactive)
H9c2
  IC50: > 79 µM (inactive)

## Cc1cccc(Cn2cc(C=O)c3ccccc32)c1
HEK293
  AC50: 33.3 µM (active)

## CCc1ccc(-c2ccc(=O)[nH]n2)cc1S(=O)(=O)CCC(=O)Nc1ccccc1OC
[4]
  EC50: > 100 µM (inactive)

## CC(=O)Nc1cc(-c2ccc(C(=O)NC3CC3)cc2)cn2c(-c3cccc(C(C)=O)c3)cnc12
Melanocortin receptor 4
  EC50: > 89.2 µM (inactive)
H9c2
  IC50: 16.3 µM (active)

## FC(F)(F)c1ccc(Nc2nnnc3ccccc23)cc1
H4
  EC50: 6.68 µM (active)
[17]
  EC50: 7.83 µM (active)
[18]
  IC50: 6.59 µM (active)
[19]
  EC50: 38 µM (active)
[13]
  IC50: 8.61 µM (active)
[20]
  CC50: > 40 µM (active)
